“And” between values parts separate entries of the source, which are not always exact repeats. Equal values may be shown once. Read-outs that look alike come from different tables or passages of the source.
Columns and labels:
MC1-R [1] = system: T1, MC1-R; assay: cAMP functional assay, B-16 mouse melanoma cells expressing MC1-R; format: cell-based; settings: cAMP assay at 1 μM
T1 construct: from B-16 mouse melanoma cells (containing MC1-R); endogenous in cells; host or cells: B-16 mouse melanoma cells
Experimental: (§1) General method for EC50 determination in functional activity assay. Functional evaluation of compounds at melanocortin receptors was performed by measuring the accumulation of intracellular cAMP in HEK-293 cells expressing hMC3-R, hMC4-R or hMC5-R, and in B-16 mouse melanoma cells expressing MC1-R. Cells suspended in Earle's Balanced Salt Solution containing 10 mM HEPES (pH 7.5), 5 mM MgCl2, 1 mM glutamine, 0.1% albumin and 0.6 mM 3-isobutyl-1-methyl-xanthine, a phosphodiesterase inhibitor, were plated in 96 well plates at a density of 0.5×10^5 cells per well. Cells were incubated with the test compounds in the presence or absence of α-MSH for 1 hour at 37° C. cAMP levels in the cell lysates were measured using an EIA kit (Amersham). Data analysis and EC50 values were determined using nonlinear regression analysis with Prism Graph-Pad software.
(§2) Functional status. The agonist/antagonist status with respect to MC1-R, MC-3R, MC4-R and MC5-R of certain compounds of the invention was determined.

hMC4-R [2] = system: T2, hMC4-R; assay: Competitive inhibition assay using [I125]-NDP-α-MSH, hMC4-R membranes; format: binding, human; settings: for Inhibition at 1 μM (NDP-α-MSH) MC4-R: 1 μM compound
T2 construct: expressed in transfected cells; host or cells: HEK-293
Experimental: (§3) Competitive inhibition assay using [1125]-NDP-α-MSH. A competitive inhibition binding assay was conducted using membranes prepared from HEK-293 cells transfected to express hMC3-R, hMC4-R or hMC5-R, and from B-16 mouse melanoma cells (containing MC1-R) using 0.2 to 0.4 nM [I^125]-NDP-α-MSH (New England Nuclear) in 50 mM HEPES buffer containing 1 mM MgCl2, 2 mM CaCl2, and 5 mM KCl, at pH 7.2. In certain experiments, HEK-293 cells transfected to express hMC1-R were also employed. The assay tube also contained a chosen concentration of the test compound of this invention, typically a 1 μM concentration, for determining inhibition of the binding of [^1125]-NDP-α-MSH to its receptor. Non-specific binding was measured by inhibition of binding of [I^125]-NDP-α-MSH in the assay with the presence of 1 μM α-MSH.
(§4) The assay mixture was incubated for 90 minutes at room temperature, then filtered and the membranes washed three times with ice cold buffer. The filter was dried and counted in a gamma counter for remaining radioactivity bound to the membranes. 100% specific binding was defined as the difference in radioactivity (cpm) bound to cell membranes in the absence and presence of 1 μM α-MSH. The cpm obtained in presence of test compounds were normalized with respect to 100% specific binding to determine the percent inhibition of [125]-NDP-α-MSH binding. Each assay was conducted in triplicate and the actual mean values are described, with results less than 0% reported as 0%.

hMC5-R [3] = system: T3, hMC5-R; assay: cAMP functional assay, HEK-293 cells expressing hMC5-R; format: cell-based, human; settings: cAMP assay at 1 μM
T3 construct: expressed in transfected cells; host or cells: HEK-293
Experimental: as §1, §2

hMC5-R [4] = system: T3, hMC5-R; assay: Competitive inhibition assay using [I125]-NDP-α-MSH, hMC5-R membranes; format: binding, human; settings: for Inhibition at 1 μM (NDP-α-MSH) MC5-R: 1 μM compound; for Ki: read-out: Ki (nM) (NDP-α-MSH) MC5-R
Experimental: as §3, §4

hMC4-R [5] = system: T2, hMC4-R; format: binding, human; settings: for Inhibition at 1 μM (AgRP) MC4-R: 1 μM compound
Experimental: Competitive binding assay using [I^125]-AgRP (83-132). Competitive binding studies using [I^125]-AgRP (83-132) were carried out on membranes isolated from cells expressing hMC4-R. The assay was performed in 96 well GF/B Millipore multiscreen filtration plates (MAFB NOB10) pre-coated with 0.5% bovine serum albumin (Fraction V). The assay mixture contained 25 mM HEPES buffer (pH 7.5) with 100 mM NaCl, 2 mM CaCl2, 2 mM MgCl2, 0.3 mM 1,10-phenanthroline, 0.5% bovine serum albumin, cell membranes, radioligand [I^125]-AgRP (83-132) (NEN), and increasing concentrations of compounds in a total volume of 200 μL. Binding was measured at radioligand concentrations of 0.2 nM. After incubating for 1 hour at 37° C., the reaction mixture was filtered and washed with an assay buffer containing 500 mM NaCl. The dried discs were punched out from the plate and counted on a gamma counter. Care was taken to limit the specific binding of the ligand to an amount not exceeding 10% of the counts added to the reaction mixture. Data were analyzed using the Prism Graph-Pad curve fitting software.

hMC3-R [6] = system: T4, hMC3-R; assay: cAMP functional assay, HEK-293 cells expressing hMC3-R; format: cell-based, human; settings: cAMP assay at 1 μM
T4 construct: expressed in transfected cells; host or cells: HEK-293
Experimental: as §1, §2

MC1-R [7] = molecular target: T5, MC1-R; assay: Competitive inhibition assay using [I125]-NDP-α-MSH, MC1-R membranes; format: binding, mouse; settings: for Inhibition at 1 μM (NDP-α-MSH) MC1-R: 1 μM compound
T5 construct: other: 1 μM compound
Experimental: as §3, §4

hMC3-R [8] = system: T4, hMC3-R; assay: Competitive inhibition assay using [I125]-NDP-α-MSH, hMC3-R membranes; format: binding, human; settings: for Inhibition at 1 μM (NDP-α-MSH) MC3-R: 1 μM compound; for Ki: read-out: Ki (nM) (NDP-α-MSH) MC3-R
Experimental: as §3, §4

hMC4-R [9] = system: T2, hMC4-R; assay: cAMP functional assay in HEK-293 cells expressing MC4-R (agonist, neutral antagonist/Schild); format: cell-based, human; settings: for intrinsic activity at MC4-R: NDP-α-MSH maximal stimulation = 1.0; for functional status at MC4-R: mostly at 1 μM
Experimental: as §1, §2
Assay for agonist. Evaluation of the molecules to elicit a functional response in HEK-293 cells expressing MC4-R was accomplished by measuring the accumulation of intracellular cAMP following treatment. Confluent HEK-293 cells expressing MC4-R were detached by enzyme free cell suspension buffer. Cells were suspended in Earle's Balanced Salt Solution containing 10 mM HEPES (pH 7.5), 1 mM MgCl2, 1 mM glutamine, 0.5% albumin and 0.3 mM 3-isobutyl-1-methyl-xanthine (IBMX), a phosphodiesterase inhibitor. The cells were plated in 96 well plates at a density of 0.5×10^5 cells per well and pre-incubated for 30 minutes. The cells were then challenged with the test compounds dissolved in DMSO at a concentration range of 0.05-5000 nM in a total assay volume of 200 μL for 1 hour at 37° C. The concentration of DMSO was always held at 1% in the assay mixture. NDP-α-MSH was used as the reference agonist. At the end of the incubation period the cells were disrupted by the addition of 50 μL of lysis buffer from a cAMP EIA kit (Amersham). Complete rupture of the cells was obtained by pipetting the cells multiple times. cAMP levels in the cell lysates were measured after appropriate dilution using the EIA kit (Amersham) method. Data analysis and EC50 values were determined by using nonlinear regression analysis with Prism Graph-Pad software. […] FIG. 1 illustrates typical results, showing the stimulation of cAMP using the compound of Example 11 in HEK-293/MC4-R cells with comparison to NDP-α-MSH.
Assay for Neutral Antagonist. Compounds with a high affinity for binding to MC4-R membranes but with less potency in terms of cAMP accumulation (EC50>1000 nM) and low response ratio (<0.1) were analyzed for their ability to antagonize the stimulatory effect of the agonist NDP-α-MSH. These studies were carried out in HEK-293 cells expressing MC4-R. Cells were incubated with the compounds in the presence of the agonist NDP-α-MSH and the extent of antagonism was measured by the decrease in intracellular cAMP concentrations. Screening the compounds for antagonist activity was performed at a single concentration of NDP-α-MSH (1.0 nM) over a compound concentration range of 0.5-5000 nM.
Experimental details were similar to the analysis for agonistic activity described above. Briefly, cells were pre-incubated for 30 minutes with the test compounds at concentrations between 0.5 nM and 5000 nM. The cells were then stimulated with NDP-α-MSH at a concentration of 1 nM for 1 hour. For Schild's analysis, the interactions were studied using at least 3 concentrations of the compounds, separated by a log unit, over a full range of the agonist (0.005-5000 nM). cAMP levels were measured in the cell lysates after appropriate dilution. Nonlinear regression analysis with Prism Graph-Pad software was used for Schild analysis and to obtain EC50 values. pA2 values were derived from the Schild plot of the data.

[10] = MC4-R membranes, Table 1, read-out: Ki (nM) I125-NPD-α-MSH
[11] = read-out: Ki (nM) (NDP-α-MSH) MC4-R
[12] = MC4-R membranes, Table 1, read-out: Ki (nM) I125-AgRP
[13] = cAMP assay, read-out: EC50 (nM) at MC4-R

Row | Molecule | functional status at MC1-R (MC1-R [1]) | Inhibition at 1 μM (NDP-α-MSH) MC4-R (hMC4-R [2]) | Ki (hMC4-R [2]; [10]) | Ki (hMC4-R [2]; [11]) | functional status at MC5-R (hMC5-R [3]) | Inhibition at 1 μM (NDP-α-MSH) MC5-R (hMC5-R [4]) | Ki (hMC5-R [4]) | Inhibition at 1 μM (AgRP) MC4-R (hMC4-R [5]) | Ki (hMC4-R [5]; [12]) | Ki (hMC4-R [5]; read-out: Ki (nM) (AgRP) MC4-R) | functional status at MC3-R (hMC3-R [6]) | Ki (MC1-R [7]) | Inhibition at 1 μM (NDP-α-MSH) MC1-R (MC1-R [7]) | Inhibition at 1 μM (NDP-α-MSH) MC3-R (hMC3-R [8]) | Ki (hMC3-R [8]) | functional status (pAg, Ag, Antag, Inactive) (hMC4-R [9]; MC4-R, Table 1) | EC50 (hMC4-R [9]; MC4-R, Table 1, read-out: EC50) | intrinsic activity at MC4-R (hMC4-R [9]) | functional status at MC4-R (hMC4-R [9]; cAMP assay) | EC50 (hMC4-R [9]; [13]) | other results
1 | C[C@@H]1CN(C(=O)[C@H](N)Cc2ccc3ccccc3c2)[C@@H](CCCNC(=N)N)CN1CCc1c[nH]c2ccccc12 [Example 8, N-(3-{1-(2(R)-Amino-3-naphthalen-2-yl-propionyl)-4-[2-(1H-indol-3-yl)-ethyl]-5(R)-methyl-piperazin-2(S)-yl}-propyl)-guanidine] | no intrinsic activity (intrinsic activity below 0.1 (10%) is classified as inactive or having no intrinsic activity) | 93% | 37 nM | 37 nM | no intrinsic activity (intrinsic activity below 0.1 (10%) is classified as inactive or having no intrinsic activity) | 51% | 808 nM | 89% | 56 nM | 56 nM | no intrinsic activity (intrinsic activity below 0.1 (10%) is classified as inactive or having no intrinsic activity) | 162 nM | 2% | 27% | 2120 nM | Ag | > 1000 nM | 0.9 | full agonist | > 100 nM | attenuation of binding of α-MSH and AgRP to MC4-R (hMC4-R [2]; both ligands (NDP-α-MSH and AgRP), summary): attenuate the binding of both α-MSH and AgRP to MC4-R
2 | CC(C)C[C@H]1CN(C(=O)[C@H](N)Cc2ccc(Cl)cc2Cl)[C@@H](CCCNC(=N)N)CN1CCc1ccc2ccccc2c1 [Example 3, N-{3-[1-[2(R)-Amino-3-(2,4-dichloro-phenyl)-propionyl]-5(S)-isobutyl-4-(2-naphthalen-2-yl-ethyl)-piperazin-2(S)-yl]-propyl}-guanidine] | partial agonist (intrinsic activity between 0.1 (10%) and 0.7 (70%) is classified as a partial agonist) | 95% | 48 nM | 48 nM | partial agonist (intrinsic activity between 0.1 (10%) and 0.7 (70%) is classified as a partial agonist) | 28% | 698 nM | 91% | 39 nM | 39 nM | – | 5900 nM | 4% | 16% | 495 nM | Inactive | – | no intrinsic activity | inactive | – | –
3 | C[C@@H]1CN(C(=O)[C@H](N)Cc2ccc(Cl)cc2Cl)[C@@H](CCCNC(=N)N)CN1CCc1ccc2ccccc2c1 [Example 12, N-{3-[1-[2(R)-Amino-3-(2,4-dichloro-phenyl)-propionyl]-5(R)-methyl-4-(2-naphthalen-2-yl-ethyl)-piperazin-2(S)-yl]-propyl}-guanidine] | inactive | 99% | – | – | inactive | – | – | – | – | – | inactive | 1130 nM | 20% | – | – | Antag (“Antag” means antagonist) | – | – | antagonist | – | pA2 value at MC4-R (hMC4-R [9]; Schild plot vs NDP-α-MSH): 7.52 and 7.7
4 | NH2—(CH2)6—C(═O)-Ser(Bzl)-D-Phe(4-Cl)-Arg-Trp-Asp-NH2 [Example 14] | inactive | – | – | – | inactive | – | – | – | – | – | partial agonist (intrinsic activity between 0.1 (10%) and 0.7 (70%) is classified as a partial agonist) | 760 nM | 35% | – | 180 nM | pAg (“pAg” means partial agonist) | 568 nM | 0.5 | partial agonist (intrinsic activity between 0.1 (10%) and 0.7 (70%) is classified as a partial agonist) | 568 nM | –

From patent US20090076029A1 (Palatin Technologies, Inc., priority 2007, published 2009)
